# Where two headings read alike, the source gives them in different places.
# What was measured:
# sedation [1] = conditions: humans, oral; U.S. Pat. Nos. 9,138,431 and 9,345,697; cited from earlier work
# IL-6 = assay: PHA-induced IL-6 release from human leucocytes (buffy coats); assay type: cell-based; conditions: Leucocyte, 30 min pre-incubation, PHA 5 μg/ml 16 hours
# Method: (§1) The objective of this study was to assess the ability of norketotifen to inhibit cytokine release from stimulated human leucocytes.
# (§2) The study was conducted in two phases. The first phase included optimization of the test methodology and including dose-range finding studies, using buffy coats from 3 human donors, stimulated with phytohemagglutinin (PHA). Following optimization of the test conditions, a final protocol was issued. In the ensuing Main Study, white blood cells (buffy coats) from 5 healthy human donors were stimulated with PHA, 5 μg/ml. The concentrations of the test article and the duration of exposure were optimized to obtain acceptable dose-response ratios. Thus, the inhibitory effects of three concentrations of NK and one concentration of ketotifen were evaluated in the Main Study. The buffy coats containing white blood cells from 5 male human donors were resuspended in assay media and were pre-incubated for 30 min with either vehicle/saline, ketotifen 4.3 μg/ml (10 μM) and norketotifen 0.4 μg/ml, 4.1 μg/ml and 41 μg/ml (1.0; 10 and 100 μM). Following these preincubations, the white blood cells were stimulated for 16 hours with PHA, 5 μg/ml. The cell system supernatants were then harvested and stored frozen pending analyses.
# (§3) The concentration of the test articles had to be high in this ex vivo study since the test kit used a high concentration of the agonist PHA (5 μg/ml) and a long exposure time (16 hrs).
# sedation [2] = conditions: dogs, oral; U.S. Pat. No. 8,557,846; cited from earlier work
# MIP-1a = assay: PHA-induced MIP-1a release from human leucocytes (buffy coats); assay type: cell-based; conditions: Leucocyte, 30 min pre-incubation, PHA 5 μg/ml 16 hours
# Method: as §1, §2, §3
# [3] = system: IL31-induced (SC) pruritus; assay: IL-31-induced pruritus in mice; assay type: in vivo; conditions: at the dose tested
# Method: To determine if NK inhibits IL31-induced pruritus in mice. Studies have now been performed, using murine IL31 as a pruritogen. Mice were dosed orally with a test article exactly 60 minutes before murine IL31 at a dose of 1.0 μg/30 gram body weight was injected subcutaneously into a previously depilated area on the rostral part of the back of mice. IL31 was dissolved in phosphate buffered saline (PBS) with 0.1% bovine serum albumin (BSA). The injected volume was 0.1 ml/mouse. The bouts of scratching were counted for 120 min, starting 30 min after the injection of IL31. The bouts of scratching were counted by trained laboratory personnel who were unaware of the pretreatment of the animals. Oclacitinib (Apoquel®) is a Janus kinase inhibitor that is the worldwide market leader for oral treatment of atopic dermatitis in dogs.
# IL-13 = assay: PHA-induced IL-13 release from human leucocytes (buffy coats); assay type: cell-based; conditions: Leucocyte, 30 min pre-incubation, PHA 5 μg/ml 16 hours
# Method: as §1, §2, §3
# IL-8 = assay: PHA-induced IL-8 release from human leucocytes (buffy coats); assay type: cell-based; conditions: Leucocyte, 30 min pre-incubation, PHA 5 μg/ml 16 hours
# Method: as §1, §2, §3
structure (smiles),measurement,setting,value
"O=C1Cc2ccccc2C(=C2CCNCC2)c2ccsc21 (racemic) [NK, norketotifen]",Sedative side effects,sedation [1],free from sedative side effects
same,inhibition at 1 µM,IL-6; 1 uM,0%
same,inhibition at 10 µM,IL-6; 10 uM,33.1%
same,inhibition at 100 µM,IL-6; 100 uM,88.2%
same,Sedative side effects,sedation [2],free from sedative side effects
same,inhibition at 1 µM,MIP-1a; 1 uM,9.53%
same,inhibition at 10 µM,MIP-1a; 10 uM,25.9%
same,inhibition at 100 µM,MIP-1a; 100 uM,91%
same,Effect on IL-31-induced pruritus (in words),[3],decreased IL-31-induced pruritus
same,inhibition at 1 µM,IL-13; 1 uM,0%
same,inhibition at 10 µM,IL-13; 10 uM,34.5%
same,inhibition at 100 µM,IL-13; 100 uM,74.2%
same,inhibition at 1 µM,IL-8; 1 uM,10.3%
same,inhibition at 10 µM,IL-8; 10 uM,34.4%
same,inhibition at 100 µM,IL-8; 100 uM,78.3%
